Results from US20100210017A1, “COMPOSITIONS AND METHODS FOR ENHANCING TOLERANCE FOR THE PRODUCTION OF ORGANIC CHEMICALS PRODUCED BY MICROORGANISMS” (priority 2007, published 2010).
In brackets after ≈: the same amount, converted by molar mass. Like-named read-outs stand apart in the source and are kept apart here.

How the values were obtained:
Type in all cases: cell-based
[1] = system: E. coli (vector control; clone expressing aroH mutant); experiment: 24 hour minimum inhibitory concentration of 3-HP in M9 minimal media; settings: Escherichia coli
Method: By use of the SCALEs methodology, a number of genetic targets for alleviating growth inhibition in the presence of 3-HP have been identified. […] A clone was constructed containing the tyrA-aroF operon and was cultured in the presence of 20 g/L 3-HP. Increased copy of this region partially alleviated growth inhibition, conferring a 15% increase in specific growth. […] One method to bypass this inherent control was obtaining an inducible feedback resistant aroH mutant that will increase the conversion of E-4-P while maintaining activity in the presence of increasing pools of downstream products, thus alleviating growth inhibition due to impaired synthesis of necessary byproducts of the chorismate pathway. […] In addition, the 24 hour minimum inhibitory concentration of 3-HP (the minimum concentration to stop visible growth at 24 hours) in M9 minimal media increased from 25 g/L for a vector control to 40 g/L for an E. coli clone expressing this aroH mutant. In certain embodiments herein, it is contemplated that the aroH mutant can be of use alone, or in combination with other genetic manipulations or selection to increase tolerance of 3-HP production in microorganisms.

[2] = system: Escherichia coli strain Mach1-T1^R containing pSMART-LCKAN empty vector; experiment: Growth confirmations: media supplementation in presence of 3-HP; settings: for effect on specific growth in the presence of 3-HP: supplementation of the growth medium, 3-HP present
Source text: Some methods concern wild-type Escherichia coli K12 (ATCC # 29425) used for the preparation of genomic DNA. Genomic libraries were constructed using the pSMART-LCKAN (Lucigen, Middleton, Wis.). Libraries were introduced into Escherichia coli strain Mach1-T1^R (Invitrogen, Carlsbad, Calif.) for selections as previously detailed. Mach1-T1^R containing pSMART-LCKAN empty vector were used for all control studies. Growth curves were done in MOPS Minimal Media. In this example, the antibiotic concentration was 20 ug kanamycin/mL.
Overnight cultures of Mach1-T1^R+pSMART LC-KAN were inoculated into 5 mL LB+kanamycin. Growth curves were constructed by inoculating into 15 mL screw cap tubes containing supplements (Table 1) and 15 mL MOPS Minimal Media+kanamycin+3-HP from overnight culture. Cultures were incubated at 37° C. and optical density was monitored to an OD600>0.2. Cultures were then diluted to an exact OD600=0.2 and were used to inoculate cultures containing 15 mL MOPS Minimal Media+kanamycin+3-HP (pH=7.0) to an initial optical density of […] in order to minimize effects of growth in stationary phase. Optical density was monitored and recorded over the entire range of microaerobic growth in minimal media, or until a final OD600 0.5-0.6. Growth parameters were evaluated in terms of specific growth, OD600 at the culmination of the growth phase (approximately 14 hours), and OD600 at conclusion of maximum growth phase and final OD600 (24 hrs). To address specific intermediate limitations, associated chorismate pathway supplements were added to final concentrations listed in Table 1.
To confirm these findings, the culture medium was supplemented with products synthesized downstream of chorismate. The addition of each product individually stimulated growth, further confirming that the inhibition is occurring at, or prior to synthesis of chorismate (FIG. 3B). FIG. 3B represents growth confirmations: addition of products downstream of chorismate partially alleviate growth inhibition confirmed by increased specific growth (black) and increased OD600 at the culmination of the growth phase (grey). However, increasing the supplementation of several downstream products (tyrosine, phenylalanine, tryptophan) results in feedback inhibition of the first committed step to the chorismate super-pathway and will therefore reduce formation of other downstream products including ubiquinone, meniquinone, and tetrahydrofolate and limit the associated growth benefits.

[3] = system: bacterial culture capable of producing 3-HP; experiment: 3-HP production with exogenously added tyrosine; settings: 0.2 mM tyrosine added to culture
Method: In certain embodiments, exogenously added tyrosine can be added to a bacterial culture capable of producing 3-HP. In certain particular embodiments, tyrosine concentrations can be about 0.05 mM to about 0.5 mM. In one example, 0.2 mM tyrosine was added to a culture and the increase in 3-HP production was about 35%.

[4] = system: E. coli Mach1; experiment: Minimum inhibitory concentration of acrylic acid in minimal media; settings: Escherichia coli
Method: 3-HP composition obtained, for example, from TCI America for initial library selections and all subsequent growth confirmations can contain variable amounts of acrylic acid contamination. A minimum inhibitory concentration of acrylic acid for E. coli Mach1 grown in minimal media was determined to be around 0.6 g/L. In support that the tolerance mechanism specific to the chorismate super-pathway are exclusive to 3-HP toxicity, the minimum inhibitory concentrations of acrylic acid was determined to be 0.6 g/L for E. coli Mach1 grown in minimal media supplemented with addition of shikimate or homocysteine. Additionally, the minimal inhibitory concentration was determined to be 0.6 g/L for the feedback resistant aroH mutants grown in minimal media.

O=C(O)CCO [3-HP, 3-hydroxypropionic acid]
MIC ([1]; read-out: 24 hour minimum inhibitory concentration (minimum concentration to stop visible growth at 24 hours), M9 minimal media, E. coli clone expressing feedback resistant aroH mutant): 40000 µg/mL
MIC ([1]; read-out: 24 hour minimum inhibitory concentration (minimum concentration to stop visible growth at 24 hours), M9 minimal media, vector control): 25000 µg/mL

N[C@@H](Cc1ccc(O)cc1)C(=O)O [Tyrosine, tyrosine]
effect on specific growth in the presence of 3-HP [2]: beneficial effect
increase in 3-HP production [3]: about 35%

C=CC(=O)O [acrylic acid]
MIC ([4]; MACH1, E. coli Mach1, minimal media supplemented with shikimate or homocysteine, read-out: minimum inhibitory concentration): 600 µg/mL (≈ 8.33 mM)
MIC ([4]; MACH1, E. coli Mach1 grown in minimal media, read-out: minimum inhibitory concentration): ~600 µg/mL (≈ 8.33 mM)
MIC ([4]; MACH1, read-out: minimal inhibitory concentration, feedback resistant aroH mutants grown in minimal media): 600 µg/mL (≈ 8.33 mM)

N[C@@H](Cc1ccccc1)C(=O)O [Phenylalanine, phenylalanine]
effect on specific growth in the presence of 3-HP [2]: detrimental effect

O=C(O)C1=C[C@@H](O)[C@@H](O)[C@H](O)C1 [Shikimate, shikimate]
regeneration of growth compared with wild-type growth ([2]; addition of shikimate to growth media under 3-HP stress): about 20%
effect on specific growth in the presence of 3-HP [2]: dramatic increase in growth
